Results reported in patent publication US20230365563A1, “QUINAZOLINE COMPOUND AND APPLICATION THEREOF” (SHANGHAI PHARMACEUTICALS HOLDING CO., LTD., priority 2020, published 2023).
Structures can show the parent of a compound that is named as a salt.

Experiments:
[1] = target: T1, KRAS_WT and SOS1 (Homo sapiens, UniProt P01116); experiment: Inhibition of KRAS_WT/SOS1 binding (Cisbio binding kit, 665/615 ratio), Effect Embodiment C; conditions: read-out: GTP-KRAS-WT:SOS1 IC50
T1 construct: purchased
Procedure, shortened: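 Compounds tested as 3-fold, 11-point dilutions in duplicate at 1% DMSO final against the KRAS_WT/SOS1 binding system. IC50 derived by nonlinear regression fit.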

[2] = target: T2, KRAS-G12D and SOS1 (Homo sapiens, UniProt P01116, G12D); experiment: Inhibition of KRAS-G12D/SOS1 binding (Cisbio binding kit, 665/615 ratio), Effect Embodiment A; conditions: read-out: GTP-KRAS-G12D:SOS1 IC50
T2 construct: purchased
Procedure, shortened: (§1)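 Compounds are tested over eleven threefold dilution steps in duplicate, with final DMSO at 1%.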

[3] = target: T3, KRAS_G12D and cRAF (Homo sapiens, UniProt P01116, G12D); experiment: Inhibition of KRAS_G12D/cRAF binding (Cisbio binding kit, 665/615 ratio), Effect Embodiment B; conditions: read-out: GTP-KRAS-G12D:CRAF IC50
T3 construct: purchased
Procedure, shortened: as §1

T1 sequence (P01116 1-188 isoform P01116-2): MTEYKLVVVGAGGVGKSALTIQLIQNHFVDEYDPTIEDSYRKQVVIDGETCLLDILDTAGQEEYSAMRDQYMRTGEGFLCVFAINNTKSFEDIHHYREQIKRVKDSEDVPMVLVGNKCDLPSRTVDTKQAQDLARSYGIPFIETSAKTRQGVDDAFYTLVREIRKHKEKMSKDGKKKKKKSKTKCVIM
T3 sequence (P01116 1-188 isoform P01116-2 G12D): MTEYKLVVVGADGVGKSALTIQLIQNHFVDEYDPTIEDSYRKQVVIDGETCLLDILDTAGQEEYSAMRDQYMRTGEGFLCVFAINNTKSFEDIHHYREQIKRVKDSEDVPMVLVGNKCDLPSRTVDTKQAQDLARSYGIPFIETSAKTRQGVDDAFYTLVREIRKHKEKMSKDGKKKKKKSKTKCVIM
T2 sequence (P01116 1-188 isoform P01116-2 G12D): as above

| IC50 [1] [nM] | IC50 [2] [nM] | IC50 [3] [nM] | Structure (SMILES) |
| --- | --- | --- | --- |
| 1820 | 57.8 | 170 | C[C@H]1COCCN1CCCOc1nc(N2C[C@H]3CC[C@@H](C2)N3)c2cc(Cl)c(-c3cc(O)cc4ccccc34)c(F)c2n1 (single isomer, unassigned) [Compound 174, (R or S)-4-(4-((1R,5S)-3,8-diazabicyclo[3.2.1]octan-3-yl)-6-chloro-8-fluoro-2-(3-((S)-3-methylmorpholinyl)propoxy)quinazolin-7-yl)naphthalen-2-ol diformate] |
| 458 | 18.7 | 22.4 | CN1C[C@H](F)C[C@H]1COc1nc(N2CC3CCC(C2)N3)c2cc(Cl)c(-c3cc(O)cc4ccccc34)c(F)c2n1 (single isomer, unassigned) [Compound 168, (R or S)-4-(4-((1R,5S)-3,8-diazabicyclo[3.2.1]octan-3-yl)-6-chloro-8-fluoro-2-((2S,4R)-4-fluoro-1-methylpyrrolidin-2-yl)methoxy)quinazolin-7-yl)naphthalenol dihydrochloride] |
| 23.5 | 11.4 | 6.11 | Oc1cc(Cl)c(C2CC2)c(-c2c(Cl)cc3c(N4CC5CCC(C4)N5)nc(OC[C@@]45CCCN4C[C@H](F)C5)nc3c2F)c1 (single isomer, unassigned) [Compound 198a, 3-((R or S)-4-((1R,5S)-3,8-diazabicyclo[3.2.1]octan-3-yl)-6-chloro-8-fluoro-2-((2R,7aS)-2-fluorotetrahydro-1H-pyrrolin-7a(5H)-yl)methoxy)quinazolin-7-yl)-5-chloro-4-cyclopropylphenol formate] |
| 152 | 19.4 | 15.1 | CN1CCC[C@H]1COc1nc(N2CC3CCC(C2)N3)c2cc(F)c(-c3cc(O)cc4ccccc34)c(F)c2n1 (single isomer, unassigned) [Compound 160a, (R or S) 4-(4-((1R,5S)-3,8-diazabicyclo[3.2.1]octan-3-yl)-6,8-difluoro-2-((S)-1-methylpyrrolidin-2-yl)methoxy)quinazolin-7-yl)naphthalen-2-ol dihydrochloride] |
| 3930 | 87.3 | 256 | C[C@H]1COC[C@H](C)N1CCCOc1nc(N2CC3CCC(C2)N3)c2cc(Cl)c(-c3cc(O)cc4ccccc34)c(F)c2n1 (single isomer, unassigned) [Compound 180, 4-((R or S)-4-((1R,5S)-3,8-diazabicyclo[3.2.1]octan-3-yl)-6-chloro-2-(3-((3S,5S)-3,5-dimethylmorpholinyl)propoxy)-8-fluoroquinazolin-7-yl)naphthalen-2-ol diformate] |
| 2300 | 56.3 | 212 | C[C@@H]1CCCN1CCCOc1nc(N2CC3CCC(C2)N3)c2cc(Cl)c(-c3cc(O)cc4ccccc34)c(F)c2n1 (single isomer, unassigned) [Compound 108a, 4-((S or R)-4-((1R,5S)-3,8-diazabicyclo[3.2.1]octan-3-yl)-6-chloro-8-fluoro-2-(3-((R)-2-methylpyrrolidin-1-yl)propoxy)quinazolin-7-yl)naphthalen-2-ol dihydrochloride] |
| 1530 | 39.6 | 143 | CN1CC(C)(COc2nc(N3CC4CCC(C3)N4)c3cc(Cl)c(-c4cc(O)cc5ccccc45)c(F)c3n2)C1 (single isomer, unassigned) [Compound 110, 4-((S or R)-4-((1R,5S)-3,8-diazacyclo[3.2.1]octan-3-yl)-6-chloro-2-((1,3-dimethylnonanetriacyl)methoxy)-8-fluoroquinazin-7-yl)naphthalen-2-ol ditrifluoroacetate] |
| 1710 | 36.2 | 159 | CCN(C)CCCOc1nc(N2CC3CCC(C2)N3)c2cc(Cl)c(-c3cc(O)cc4ccccc34)c(F)c2n1 (single isomer, unassigned) [Compound 49a] |
| 58.4 | 13.2 | 9 | Oc1cc(-c2c(Cl)cc3c(N4CC5CCC(C4)N5)nc(OCC45CCCN4CCC5)nc3c2F)c2ccccc2c1 (single isomer, unassigned) [Compound 199, 4-((R or S)-4-((1R,5S)-3,8-diazabicyclo[3.2.1]octan-3-yl)-6-chloro-8-fluoro-2-((tetrahydro-1H-pyrrolin-7a(5H)-yl)methoxy)quinazolin-7-yl)naphthalen-2-ol diformate] |
| 262 | 13.5 | 9.77 | CCc1cccc2cc(O)cc(-c3c(F)cc4c(N5CC6CCC(C5)N6)nc(OC[C@H](C)CN5C6CCC5CC(OC)C6)nc4c3F)c12 (single isomer, unassigned) [Compound 286a, (S or R)-4-(4-((1R,5S)-3,8-diazabicyclo[3.2.1]octan-3-yl)-6,8-difluoro-2-((R)-3-((1R,3S,5S)-3-methoxy-8-azabicyclo[3.2.1]octan-8-yl)-2-methylpropoxy)quinazolin-7-yl)-5-ethylnaphthalen-2-o1 dihydrochloride] |
| 4000 | 51.8 | 130 | CCCCN(C)CCCOc1nc(N2CC3CCC(C2)N3)c2cc(Cl)c(-c3cc(O)cc4ccccc34)c(F)c2n1 (single isomer, unassigned) [Compound 113, 4-((S or R)-4-((1R,5S)-3,8-diazabicyclo[3.2.1]octan-3-yl)-2-(3-(butyl(methyl)amino)propoxy)-6-chloro-8-fluoroquinazolin-7-yl)naphthalen-2-ol hydrochloride] |
| 5220 | 53.2 | 164 | NCCCOc1nc(N2CC3CCC(C2)N3)c2cc(Cl)c(-c3cc(O)cc4ccccc34)c(F)c2n1 (single isomer, unassigned) [Compound 94, 4-((S or R)-2-(3-aminopropoxy)-4-((1R,5S)-3,8-diazabicyclo[3.2.1]octan-3-yl)-6-chloro-8-fluoroquinazolin-7-yl)naphthalen-2-ol dihydrochloride] |
| 505 | 11.6 | 13 | C[C@@H](COc1nc(N2CC3CCC(C2)N3)c2cc(Cl)c(-c3cc(O)cc4ccccc34)c(F)c2n1)CN1C[C@@H](C)O[C@@H](C)C1 (single isomer, unassigned) [Compound 205, 4-((S or R)-4-((1R,5S)-3,8-diazabicyclo[3.2.1]octan-3-yl)-6-chloro-2-((R)-3-((2S,6R)-2,6-dimethylmorpholinyl)-2-methylpropoxy)-8-fluoroquinazolin-7-yl)naphthalenol formate] |

| Structure (SMILES) | IC50 [1] [nM] | IC50 [2] [nM] | IC50 [3] [nM] |
| --- | --- | --- | --- |
| Oc1cc(-c2c(Cl)cc3c(N4CC5CCC(C4)N5)nc(OCC(F)CN4CCCC4)nc3c2F)c2ccccc2c1 (single isomer, unassigned) [Compound 109b, 4-((S or R)-4-((1R,5S)-3,8-diazabicyclo[3.2.1]octan-3-yl)-6-chloro-8-fluoro-2-((R or S)-2-fluoro-3-(pyrrolidin-1-yl)propoxy)quinazolin-7-yl)naphthalen-2-ol hydrochloride] | 5350 | 58.2 | 208 |
| CC(C)CN(C)CCCOc1nc(N2C[C@H]3CC[C@@H](C2)N3)c2cc(Cl)c(-c3cc(O)cc4ccccc34)c(F)c2n1 (single isomer, unassigned) [Compound 115, 4-((S or R)-4-((1R,5S)-3,8-diazacyclo[3.2.1]octan-3-yl)-6-chloro-8-fluoro-2-(3-(isobutyl(methyl)amino)propoxy)quinazolin-7-yl)naphthalen-2-ol dihydrochloride] | 4130 | 67.8 | 130 |
